Patent publication US20230143612A1 (Arbutus Biopharma Corporation, priority 2020, published 2023)
pIC50: −log10 of the molar value.

molecular target: PD-L1 His protein / PD-1 Fc protein (Homo sapiens, UniProt Q9NZQ7); assay: HTRF Assay (PD-1/PD-L1 interaction); assay type: binding; settings: PD-L1 His 6 nM, PD-1 Fc 6 nM
Procedure, shortened: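 Compounds tested from 20 μM down to 0.001 μM (3-fold) against 6 nM PD-L1 His and 6 nM PD-1 Fc, 15 min room temperature incubation. Detection after 1 h at room temperature with Tb cryptate anti-6HIS and XL665 anti-human IgG reagents (mixture at 0.35 nM and 6.7 nM), HTRF signal.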

PD-L1 His protein / PD-1 Fc protein, sequence (Q9NZQ7 19-238 limits assumed): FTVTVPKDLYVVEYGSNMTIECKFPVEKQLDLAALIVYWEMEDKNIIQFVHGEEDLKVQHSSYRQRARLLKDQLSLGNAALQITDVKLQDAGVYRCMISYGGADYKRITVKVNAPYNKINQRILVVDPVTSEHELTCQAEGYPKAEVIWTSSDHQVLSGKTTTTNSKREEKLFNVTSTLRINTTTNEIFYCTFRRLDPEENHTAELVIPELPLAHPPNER

Row | SMILES | pIC50
1 | COc1nc(-c2cccc(-c3cccc(-c4ccn5c(=O)c(CNC[C@@H]6CCC(=O)N6)cnc5c4)c3Cl)c2C#N)ccc1CNC[C@@H]1CCC(=O)N1 [Example 145, 2′-Chloro-3-(6-methoxy-5-(((((S)-5-oxopyrrolidin-2-yl)methyl)amino)methyl)pyridin-2-yl)-3′-(4-oxo-3-(((((S)-5-oxopyrrolidin-2-yl)methyl)amino)methyl)-4H-pyrido[1,2-a]pyrimidin-8-yl)-[1,1′-biphenyl]-2-carbonitrile] | 8.66
2 | COC(=O)CNCc1ccc(-c2cccc(-c3cccc(-c4ccn5c(=O)c(CNC[C@@H]6CCC(=O)N6)cnc5c4)c3Cl)c2Cl)nc1OC [Example 124, Methyl (S)-((6-(2,2′-dichloro-3′-(4-oxo-3-((((5-oxopyrrolidin-2-yl)methyl)amino)methyl)-4H-pyrido[1,2-a]pyrimidin-8-yl)-[1,1′-biphenyl]-3-yl)-2-methoxypyridin-3-yl)methyl)glycinate] | 8.42
3 | COc1nc(-c2cccc(-c3cccc(-c4ccc5c(=O)nc(CNC[C@@H]6CCC(=O)N6)[nH]c5c4)c3Cl)c2Cl)ccc1CNC[C@@H]1CCC(=O)N1 [Example 421, 7-(2,2′-Dichloro-3′-(6-methoxy-5-(((((S)-5-oxopyrrolidin-2-yl)methyl)amino)methyl)pyridin-2-yl)-[1,1′-biphenyl]-3-yl)-2-(((((S)-5-oxopyrrolidin-2-yl)methyl)amino)methyl)quinazolin-4(1H)-one] | 7.85
4 | COc1nc(-c2cccc(-c3cccc(-c4ccn5c(=O)c(CN6CC(C(=O)O)C6)cnc5c4)c3Cl)c2Cl)cnc1CN1CC(CO)C1 [Example 93, 1-((8-(2,2′-Dichloro-3′-(5-((3-(hydroxymethyl)azetidin-1-yl)methyl)-6-methoxypyrazin-2-yl)-[1,1′-biphenyl]-3-yl)-4-oxo-4H-pyrido[1,2-a]pyrimidin-3-yl)methyl)azetidine-3-carboxylic acid] | 9.52
5 | COc1nc(-c2cccc(-c3cccc(-c4ccn5c(=O)c(CNC[C@@H]6CCC(=O)N6)cnc5c4)c3Cl)c2Cl)ccc1CN1CC2(C(=O)O)CCC1CC2 [Example 122, (S)-2-((6-(2,2′-Dichloro-3′-(4-oxo-3-((((5-oxopyrrolidin-2-yl)methyl)amino)methyl)-4H-pyrido[1,2-a]pyrimidin-8-yl)-[1,1′-biphenyl]-3-yl)-2-methoxypyridin-3-yl)methyl)-2-azabicyclo[2.2.2]octane-4-carboxylic acid] | 9.10
6 | Cc1c(-c2ccn3c(=O)c(CNC[C@@H]4CCC(=O)N4)cnc3c2)cccc1-c1cccc(-c2ccc3c(c2)CCC3NC[C@@H]2CCC(=O)N2)c1Cl (stereo partly drawn) [Example 76, 8-(2′-Chloro-2-methyl-3′-(1-((((S)-5-oxopyrrolidin-2-yl)methyl)amino)-2,3-dihydro-1H-inden-5-yl)-[1,1′-biphenyl]-3-yl)-3-(((((S)-5-oxopyrrolidin-2-yl)methyl)amino)methyl)-4H-pyrido[1,2-a]pyrimidin-4-one] | 8.47
7 | CN1CCC(NCCO)c2ccc(-c3cccc(-c4cccc(-c5ccc6c(n5)N(C)CCC6NCCO)c4Cl)c3Cl)nc21 (mixture of isomers) [Example 34, 2,2′-(((2,2′-Dichloro-[1,1′-biphenyl]-3,3′-diyl)bis(1-methyl-1,2,3,4-tetrahydro-1,8-naphthyridine-7,4-diyl))bis(azanediyl))bis(ethan-1-ol)] | 8.32
8 | Cc1c(COc2cc(OCc3cncc(C#N)c3)c(CNCCO)cc2Cl)cccc1-c1cccc(-c2ccn3c(=O)c(CNCCO)ccc3c2)c1C [Example 9, 5-((4-Chloro-2-(((2-hydroxyethyl)amino)methyl)-5-((3′-(3-(((2-hydroxyethyl)amino)methyl)-4-oxo-4H-quinolizin-8-yl)-2,2′-dimethyl-[1,1′-biphenyl]-3-yl)methoxy)phenoxy)methyl)nicotinonitrile] | 8.96
9 | Cc1c(-c2ccn3c(=O)c(CNCCO)cnc3c2)cccc1-c1cccc(COc2cc(OCc3cncc(C#N)c3)c(CNCCO)cc2Cl)c1Cl [Example 14, 5-((4-Chloro-5-((2-chloro-3′-(3-(((2-hydroxyethyl)amino)methyl)-4-oxo-4H-pyrido[1,2-a]pyrimidin-8-yl)-2′-methyl-[1,1′-biphenyl]-3-yl)methoxy)-2-(((2-hydroxyethyl)amino)methyl)phenoxy)methyl)nicotinonitrile] | 9.40
10 | Cc1c(-c2ccn3c(=O)c(CNC[C@@H]4CCC(=O)N4)cnc3c2)cccc1-c1cccc(-c2ccc(CNC[C@@H]3CCC(=O)N3)cn2)c1Cl [Example 61, 8-(2′-Chloro-2-methyl-3′-(5-(((((S)-5-oxopyrrolidin-2-yl)methyl)amino)methyl)pyridin-2-yl)-[1,1′-biphenyl]-3-yl)-3-(((((S)-5-oxopyrrolidin-2-yl)methyl)amino)methyl)-4H-pyrido[1,2-a]pyrimidin-4-one] | 7.80
11 | COc1nc(-c2cccc(-c3cccc(-c4cnc5cc(CNC[C@@H]6CCC(=O)N6)ccc5c4)c3Cl)c2Cl)ccc1CNC[C@@H]1CCC(=O)N1 [Example 370, (5S)-5-[[[3-[2-Chloro-3-[2-chloro-3-[6-methoxy-5-[[[(2S)-5-oxopyrrolidin-2-yl]methylamino]methyl]-2-pyridyl]phenyl]phenyl]-7-quinolyl]methylamino]methyl]pyrrolidin-2-one] | 6.24
12 | COc1nc(-c2cccc(-c3cccc(-c4ccn5c(=O)c(CNC[C@@H]6CCC(=O)N6)cnc5c4)c3C)c2Cl)cnc1CNC[C@@H]1CCC(=O)N1 [Example 36, 8-(2′-Chloro-3′-(6-methoxy-5-(((((S)-5-oxopyrrolidin-2-yl)methyl)amino)methyl)pyrazin-2-yl)-2-methyl-[1,1′-biphenyl]-3-yl)-3-(((((S)-5-oxopyrrolidin-2-yl)methyl)amino)methyl)-4H-pyrido[1,2-a]pyrimidin-4-one] | 8.82
13 | COc1nc(-c2cccc(-c3cccc(-c4cc5c(=O)n(C)c(CNCCN6CCCC6=O)nn5c4)c3Cl)c2Cl)ccc1CNC[C@@H]1CCC(=O)N1 [Example 458, 6-[2-Chloro-3-[2-chloro-3-[6-methoxy-5-[[[(2S)-5-oxopyrrolidin-2-yl]methylamino]methyl]-2-pyridyl]phenyl]phenyl]-3-methyl-2-[[2-(2-oxopyrrolidin-1-yl)ethylamino]methyl]pyrrolo[2,1-f][1,2,4]triazin-4-one] | 6.62
14 | COc1nc(-c2cccc(-c3cccc(-c4cc5c(=O)n(C)c(CNCC6CC(F)(F)C(=O)N6)nn5c4)c3Cl)c2Cl)ccc1CNC[C@@H]1CCC(=O)N1 (mixture of isomers) [Example 450, 6-[2-Chloro-3-[2-chloro-3-[6-methoxy-5-[[[rac-(2S)-5-oxopyrrolidin-2-yl]methylamino]methyl]-2-pyridyl]phenyl]phenyl]-2-[[(4,4-difluoro-5-oxo-pyrrolidin-2-yl)methylamino]methyl]-3-methyl-pyrrolo[2,1-f][1,2,4]triazin-4-one] | 7.92
15 | COc1nc(-c2cccc(-c3cccc(-c4ccn5c(=O)c(CNC[C@@H](O)CC(=O)N(C)C)cnc5c4)c3Cl)c2Cl)cc(F)c1CNC[C@@H]1CCC(=O)N1 [Example 336, (3S)-4-[[8-[2-Chloro-3-[2-chloro-3-[4-fluoro-6-methoxy-5-[[[(2S)-5-oxopyrrolidin-2-yl]methylamino]methyl]-2-pyridyl]phenyl]phenyl]-4-oxo-pyrido[1,2-a]pyrimidin-3-yl]methylamino]-3-hydroxy-N,N-dimethyl-butanamide] | 10.00
16 | COc1nc(-c2cccc(-c3cccc(-c4cc(=O)n5cc(CNC[C@@H]6CCC(=O)N6)ccc5n4)c3Cl)c2Cl)cnc1CNC[C@@H]1CCC(=O)N1 [Example 58, 2-(2,2′-Dichloro-3′-(6-methoxy-5-(((((S)-5-oxopyrrolidin-2-yl)methyl)amino)methyl)pyrazin-2-yl)-[1,1′-biphenyl]-3-yl)-7-(((((S)-5-oxopyrrolidin-2-yl)methyl)amino)methyl)-4H-pyrido[1,2-a]pyrimidin-4-one] | 8.66
17 | COc1nc(-c2cccc(-c3cccc(-c4ccn5c(=O)c6c(nc5c4)OCCNC6)c3Cl)c2Cl)ccc1CNC[C@@H]1CCC(=O)N1 [Example 396, (S)-10-(2,2′-Dichloro-3′-(6-methoxy-5-((((5-oxopyrrolidin-2-yl)methyl)amino)methyl)pyridin-2-yl)-[1,1′-biphenyl]-3-yl)-4,5-dihydro-2H-pyrido[1′,2′:1,2]pyrimido[5,4-f][1,4]oxazepin-6(3H)-one] | 7.82
18 | Cc1c(COc2cc(OCc3cncc(C#N)c3)c(CNCCO)cc2Cl)cccc1-c1cccc(-c2ccc3c(c2)N(C)C(=O)CCC3NCCO)c1C (centres unmarked) [Example 22, 5-((4-Chloro-5-((3′-(5-((2-hydroxyethyl)amino)-1-methyl-2-oxo-2,3,4,5-tetrahydro-1H-benzo[b]azepin-8-yl)-2,2′-dimethyl-[1,1′-biphenyl]-3-yl)methoxy)-2-(((2-hydroxyethyl)amino)methyl)phenoxy)methyl)nicotinonitrile] | 8.22
19 | COC(=O)C1CN=C(c2cnc3cc(-c4cccc(-c5cccc(-c6ccc(CNC[C@@H]7CCC(=O)N7)c(OC)n6)c5Cl)c4Cl)ccn3c2=O)N1 (stereo partly drawn) [Example 171, Methyl 2-(8-(2,2′-dichloro-3′-(6-methoxy-5-(((((S)-5-oxopyrrolidin-2-yl)methyl)amino)methyl)pyridin-2-yl)-[1,1′-biphenyl]-3-yl)-4-oxo-4H-pyrido[1,2-a]pyrimidin-3-yl)-4,5-dihydro-1H-imidazole-5-carboxylate] | 9.70
20 | COc1nc(-c2cccc(-c3cccc(-c4ccc5c(n4)CCC[C@@H]5NC[C@@H]4CCC(=O)N4)c3Cl)c2Cl)ccc1CNC[C@@H]1CCC(=O)N1 [Example 435, (S)-5-((((6-(2,2′-Dichloro-3′-((S)-5-((((S)-5-oxopyrrolidin-2-yl)methyl)amino)-5,6,7,8-tetrahydroquinolin-2-yl)-[1,1′-biphenyl]-3-yl)-2-methoxypyridin-3-yl)methyl)amino)methyl)pyrrolidin-2-one] | 7.64
